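Assay format: 96-well plates, 48-hour exposure. At the GI50, growth is halved. TGI is the concentration that stops growth completely.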
Experiments:
Experiment in all cases: growth of human tumour cells (NCI), 48 h
786-0 renal = system: 786-0 renal
A498 renal = system: A498 renal
A549 NSCLC = system: A549 NSCLC
ACHN renal = system: ACHN renal
CAKI-1 renal = system: CAKI-1 renal
CCRF-CEM leukemia = system: CCRF-CEM leukemia
COLO 205 colon = system: COLO 205 colon
DU-145 prostate = system: DU-145 prostate
EKVX NSCLC = system: EKVX NSCLC
HCC-2998 colon = system: HCC-2998 colon
HCT-116 colon = system: HCT-116 colon
HCT-15 colon = system: HCT-15 colon
HL-60(TB) leukemia = system: HL-60(TB) leukemia
HOP-62 NSCLC = system: HOP-62 NSCLC
HOP-92 NSCLC = system: HOP-92 NSCLC
HS 578T breast = system: HS 578T breast
IGROV1 ovarian = system: IGROV1 ovarian
K-562 leukemia = system: K-562 leukemia
KM12 colon = system: KM12 colon
LOX IMVI melanoma = system: LOX IMVI melanoma
M14 melanoma = system: M14 melanoma
MALME-3M melanoma = system: MALME-3M melanoma
MCF7 breast = system: MCF7 breast
MDA-MB-231 breast = system: MDA-MB-231 breast
MDA-MB-435 = system: MDA-MB-435
MOLT-4 leukemia = system: MOLT-4 leukemia
NCI-H226 lung = system: NCI-H226 lung
NCI-H23 lung = system: NCI-H23 lung
NCI-H460 lung = system: NCI-H460 lung
NCI/ADR-RES ovarian = system: NCI/ADR-RES ovarian
OVCAR-3 ovarian = system: OVCAR-3 ovarian
OVCAR-4 ovarian = system: OVCAR-4 ovarian
OVCAR-5 ovarian = system: OVCAR-5 ovarian
OVCAR-8 ovarian = system: OVCAR-8 ovarian
PC-3 prostate = system: PC-3 prostate
RPMI-8226 leukemia = system: RPMI-8226 leukemia
RXF 393 renal = system: RXF 393 renal
SF-268 CNS = system: SF-268 CNS
SF-295 CNS = system: SF-295 CNS
SF-539 CNS = system: SF-539 CNS
SK-MEL-28 melanoma = system: SK-MEL-28 melanoma
SK-MEL-5 melanoma = system: SK-MEL-5 melanoma
SK-OV-3 ovarian = system: SK-OV-3 ovarian
SNB-19 CNS = system: SNB-19 CNS
SNB-75 CNS = system: SNB-75 CNS
SR leukemia = system: SR leukemia
SW-620 colon = system: SW-620 colon
T-47D breast = system: T-47D breast
U251 CNS = system: U251 CNS
UACC-257 melanoma = system: UACC-257 melanoma
UACC-62 melanoma = system: UACC-62 melanoma
UO-31 renal = system: UO-31 renal

Nc1nc(N)c(N=Nc2ccccc2)c(-c2ccccc2)n1
GI50 (786-0 renal): 5.98 µM
TGI (786-0 renal): 19.4 µM
GI50 (A498 renal): 2.07 µM
TGI (A498 renal): 11.4 µM
GI50 (A549 NSCLC): 6.85 µM
TGI (A549 NSCLC): 22.8 µM
GI50 (ACHN renal): 4.49 µM
TGI (ACHN renal): 19 µM
GI50 (CAKI-1 renal): 3.57 µM
TGI (CAKI-1 renal): 23.5 µM
GI50 (CCRF-CEM leukemia): 8.14 µM
TGI (CCRF-CEM leukemia): > 100 µM
GI50 (COLO 205 colon): 9.29 µM
TGI (COLO 205 colon): 25.8 µM
GI50 (DU-145 prostate): 9.9 µM
TGI (DU-145 prostate): 34.1 µM
GI50 (EKVX NSCLC): 3.75 µM
TGI (EKVX NSCLC): 30.8 µM
GI50 (HCC-2998 colon): 14.3 µM
TGI (HCC-2998 colon): > 100 µM
GI50 (HCT-116 colon): 5.12 µM
TGI (HCT-116 colon): 18.3 µM
GI50 (HCT-15 colon): 5.95 µM
TGI (HCT-15 colon): 39.9 µM
GI50 (HL-60(TB) leukemia): 11.1 µM
TGI (HL-60(TB) leukemia): > 100 µM
GI50 (HOP-62 NSCLC): 4.25 µM
TGI (HOP-62 NSCLC): 19.2 µM
GI50 (HOP-92 NSCLC): 1.45 µM
TGI (HOP-92 NSCLC): 9.95 µM
GI50 (HS 578T breast): 1.66 µM
TGI (HS 578T breast): 6.88 µM
GI50 (IGROV1 ovarian): 2.01 µM
TGI (IGROV1 ovarian): 22.2 µM
GI50 (K-562 leukemia): 10.3 µM
TGI (K-562 leukemia): > 100 µM
GI50 (KM12 colon): 2.89 µM
TGI (KM12 colon): 14.5 µM
GI50 (LOX IMVI melanoma): 11 µM
TGI (LOX IMVI melanoma): 23.5 µM
GI50 (M14 melanoma): 12 µM
TGI (M14 melanoma): 34.6 µM
GI50 (MALME-3M melanoma): 4.33 µM
TGI (MALME-3M melanoma): 24.9 µM
GI50 (MCF7 breast): 0.362 µM
TGI (MCF7 breast): 18.1 µM
GI50 (MDA-MB-231 breast): 5.84 µM
TGI (MDA-MB-231 breast): 30.5 µM
GI50 (MDA-MB-435): 11.5 µM
TGI (MDA-MB-435): 29.5 µM
GI50 (MOLT-4 leukemia): 3.68 µM
TGI (MOLT-4 leukemia): 68.7 µM
GI50 (NCI-H226 lung): 4.19 µM
TGI (NCI-H226 lung): 19.4 µM
GI50 (NCI-H23 lung): 10.4 µM
TGI (NCI-H23 lung): 31.4 µM
GI50 (NCI-H460 lung): 4.16 µM
TGI (NCI-H460 lung): 17.8 µM
GI50 (NCI/ADR-RES ovarian): 9.53 µM
TGI (NCI/ADR-RES ovarian): 53.1 µM
GI50 (OVCAR-3 ovarian): 10.4 µM
TGI (OVCAR-3 ovarian): 23 µM
GI50 (OVCAR-4 ovarian): 4.03 µM
TGI (OVCAR-4 ovarian): 20.7 µM
GI50 (OVCAR-5 ovarian): 6.47 µM
TGI (OVCAR-5 ovarian): 23.8 µM
GI50 (OVCAR-8 ovarian): 11.1 µM
TGI (OVCAR-8 ovarian): 37.4 µM
GI50 (PC-3 prostate): 3.02 µM
TGI (PC-3 prostate): 20.8 µM
GI50 (RPMI-8226 leukemia): 7.98 µM
TGI (RPMI-8226 leukemia): 46 µM
GI50 (RXF 393 renal): 3.42 µM
TGI (RXF 393 renal): 15.4 µM
GI50 (SF-268 CNS): 5.86 µM
TGI (SF-268 CNS): 66.8 µM
GI50 (SF-295 CNS): 3.18 µM
TGI (SF-295 CNS): 18.6 µM
GI50 (SF-539 CNS): 6.39 µM
TGI (SF-539 CNS): 21.1 µM
GI50 (SK-MEL-28 melanoma): 11.3 µM
TGI (SK-MEL-28 melanoma): 28.2 µM
GI50 (SK-MEL-5 melanoma): 3.74 µM
TGI (SK-MEL-5 melanoma): 20.3 µM
GI50 (SK-OV-3 ovarian): 4.4 µM
TGI (SK-OV-3 ovarian): 17.5 µM
GI50 (SNB-19 CNS): 12.5 µM
TGI (SNB-19 CNS): 43.3 µM
GI50 (SNB-75 CNS): 1.41 µM
TGI (SNB-75 CNS): 7.8 µM
GI50 (SR leukemia): 4.54 µM
TGI (SR leukemia): 73.3 µM
GI50 (SW-620 colon): 12.8 µM
TGI (SW-620 colon): 27.2 µM
GI50 (T-47D breast): 0.487 µM
TGI (T-47D breast): 6.91 µM
GI50 (U251 CNS): 8.27 µM
TGI (U251 CNS): 26.8 µM
GI50 (UACC-257 melanoma): 13.7 µM
TGI (UACC-257 melanoma): 35.9 µM
GI50 (UACC-62 melanoma): 4.33 µM
TGI (UACC-62 melanoma): 20.1 µM
GI50 (UO-31 renal): 2.54 µM
TGI (UO-31 renal): 24.7 µM

Reference: PubChem BioAssay (NCI)
